Assay results as given in PubChem BioAssay (NCI).
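The compound was tested at five concentrations on cells cultured in 96-well plates, with a 48-hour exposure period. TGI: total growth inhibition.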

How the values were obtained:
Test in all cases: growth of human tumour cells (NCI), 48 h
KM20L2 colon = test system: KM20L2 colon
UO-31 renal = test system: UO-31 renal
OVCAR-3 ovarian = test system: OVCAR-3 ovarian
LOX IMVI melanoma = test system: LOX IMVI melanoma
HCC-2998 colon = test system: HCC-2998 colon
MALME-3M melanoma = test system: MALME-3M melanoma
HL-60(TB) leukemia = test system: HL-60(TB) leukemia
DLD-1 colon = test system: DLD-1 colon
KM12 colon = test system: KM12 colon
MDA-MB-435 = test system: MDA-MB-435

CC(=O)OC(C)(C)C1CC[C@]2(C)/C=C/C(C)C[C@@H](O)/C=C(\C)CC(O)C12 (stereo partly drawn)
TGI (KM20L2 colon): > 100 µM | TGI (UO-31 renal): > 100 µM | TGI (OVCAR-3 ovarian): > 100 µM | TGI (LOX IMVI melanoma): > 100 µM | TGI (HCC-2998 colon): > 100 µM | TGI (MALME-3M melanoma): > 100 µM | TGI (HL-60(TB) leukemia): > 100 µM | TGI (DLD-1 colon): > 100 µM | TGI (KM12 colon): > 100 µM

O=C(O)CN1CCSc2ccccc2CN(CC(=O)O)CCSc2ccccc2C1
TGI (KM20L2 colon): > 100 µM | TGI (UO-31 renal): > 100 µM | TGI (OVCAR-3 ovarian): > 100 µM | TGI (LOX IMVI melanoma): > 100 µM | TGI (HCC-2998 colon): > 100 µM | TGI (MALME-3M melanoma): > 100 µM | TGI (HL-60(TB) leukemia): > 100 µM | TGI (DLD-1 colon): > 100 µM | TGI (KM12 colon): > 100 µM

O=C(O)/C=C/c1ccc(O)c(O)c1
TGI (KM20L2 colon): > 100 µM | TGI (UO-31 renal): > 100 µM | TGI (OVCAR-3 ovarian): > 100 µM | TGI (LOX IMVI melanoma): > 100 µM | TGI (HCC-2998 colon): > 100 µM | TGI (MALME-3M melanoma): > 100 µM | TGI (HL-60(TB) leukemia): > 100 µM | TGI (DLD-1 colon): > 100 µM | TGI (KM12 colon): > 100 µM

Cc1c2cnccc2c(C)c2c1c1ccccc1n2CCOC(=O)c1ccccc1
TGI (KM20L2 colon): 50.5 µM | TGI (UO-31 renal): 15.3 µM | TGI (OVCAR-3 ovarian): 28.8 µM | TGI (LOX IMVI melanoma): 33.7 µM | TGI (HCC-2998 colon): 29.8 µM | TGI (MALME-3M melanoma): 28.8 µM | TGI (HL-60(TB) leukemia): 26 µM | TGI (MDA-MB-435): > 100 µM | TGI (DLD-1 colon): 49.3 µM | TGI (KM12 colon): > 98 µM

O=C(CCc1nnc2s/c(=C\c3ccc([N+](=O)[O-])cc3)c(=O)n12)Nc1ccc(Cl)c(Cl)c1
TGI (KM20L2 colon): > 100 µM | TGI (UO-31 renal): > 100 µM | TGI (OVCAR-3 ovarian): 27 µM | TGI (LOX IMVI melanoma): 31.9 µM | TGI (HCC-2998 colon): 53.9 µM | TGI (MALME-3M melanoma): 98 µM | TGI (HL-60(TB) leukemia): 44.3 µM | TGI (DLD-1 colon): 46.5 µM | TGI (KM12 colon): 31.2 µM

CC(=O)N1C/C(=C\c2ccccc2)C(=O)/C(=C/c2ccccc2)C1
TGI (KM20L2 colon): 39.5 µM | TGI (UO-31 renal): 34.4 µM | TGI (OVCAR-3 ovarian): 16.4 µM | TGI (LOX IMVI melanoma): 9.01 µM | TGI (HCC-2998 colon): 25 µM | TGI (MALME-3M melanoma): 40 µM | TGI (HL-60(TB) leukemia): 4.06 µM | TGI (DLD-1 colon): 25.8 µM | TGI (KM12 colon): 12.1 µM

C/C(=N/NC(=O)c1ccccc1S(N)(=O)=O)C(CN1CCCCC1)C(C1=C(O)C2C=CC=CC2OC1=O)c1ccccc1 (stereo not drawn)
TGI (KM20L2 colon): > 100 µM | TGI (UO-31 renal): > 100 µM | TGI (OVCAR-3 ovarian): > 100 µM | TGI (LOX IMVI melanoma): > 100 µM | TGI (MALME-3M melanoma): > 100 µM | TGI (HL-60(TB) leukemia): 53.3 µM | TGI (DLD-1 colon): > 100 µM | TGI (KM12 colon): > 100 µM

O=C(/C=C/c1ccccc1)NC1C=Nc2ccc([N+](=O)[O-])cc2NC1=O (stereo not drawn)
TGI (KM20L2 colon): > 100 µM | TGI (UO-31 renal): > 100 µM | TGI (OVCAR-3 ovarian): > 100 µM | TGI (LOX IMVI melanoma): > 100 µM | TGI (HCC-2998 colon): > 100 µM | TGI (MALME-3M melanoma): > 100 µM | TGI (HL-60(TB) leukemia): > 100 µM | TGI (DLD-1 colon): > 100 µM | TGI (KM12 colon): 86.7 µM

Cc1c(C(Cc2ccccc2N(C)C(=O)/C=C\C(=O)O)c2c[nH]c3ccccc23)c2ccccc2n1C (stereo not drawn)
TGI (KM20L2 colon): 32.7 µM | TGI (UO-31 renal): 27.7 µM | TGI (OVCAR-3 ovarian): 27.7 µM | TGI (LOX IMVI melanoma): 29.2 µM | TGI (HCC-2998 colon): 30.9 µM | TGI (MALME-3M melanoma): 22.4 µM | TGI (HL-60(TB) leukemia): 23.9 µM | TGI (DLD-1 colon): 35.2 µM | TGI (KM12 colon): 29.1 µM

NC1=C(O)c2cccc3cccc(c23)C1=O
TGI (KM20L2 colon): > 100 µM | TGI (UO-31 renal): > 100 µM | TGI (OVCAR-3 ovarian): > 100 µM | TGI (LOX IMVI melanoma): > 100 µM | TGI (HCC-2998 colon): > 100 µM | TGI (MALME-3M melanoma): > 100 µM | TGI (HL-60(TB) leukemia): > 100 µM | TGI (DLD-1 colon): > 100 µM | TGI (KM12 colon): > 100 µM

Cc1cc(N(CCC#N)CCC#N)ccc1/C=C(\NC(=O)/C=C/c1ccccc1)C(=O)N=[N+]=[N-]
TGI (KM20L2 colon): > 100 µM | TGI (UO-31 renal): > 100 µM | TGI (OVCAR-3 ovarian): > 100 µM | TGI (LOX IMVI melanoma): > 100 µM | TGI (HCC-2998 colon): > 100 µM | TGI (MALME-3M melanoma): > 100 µM | TGI (HL-60(TB) leukemia): > 100 µM | TGI (DLD-1 colon): > 100 µM
